Legend:
[1] = Maximum solubility of DHEA in lipophilic excipients (12 h stirring with excess active, filtration, HPLC); type: physicochemical; conditions: room temperature
Experimental: In Table 1 are various examples showing the low solubility of DHEA in a lipophilic phase:
These maximum solubilities of DHEA were measured after stirring for 12 h with a magnetic stirrer bar, at room temperature, with an excess of active ingredient in the excipient to be analyzed. The suspension is then filtered (1.2 μm) and then the filtrate is assayed by HPLC.
Above the concentration measured, there is recrystallization of the DHEA at room temperature.

[2] = cited from earlier work

Compound: C[C@]12CC[C@H](O)CC1=CC[C@@H]1[C@@H]2CC[C@]2(C)C(=O)CC[C@@H]12 [DHEA, 3-beta-hydroxyandrosteron-5-en-17-one]
- Solubility (% w/w) ([1]; in Caprylic/capric triglycerides): 1.77% w/w
- Solubility (% w/w) ([1]; in Cetearyl isononanoate): 0.83% w/w
- Solubility (% w/w) ([1]; in Cyclomethicone): 0.04% w/w
- Solubility (% w/w) ([1]; in Dimethicone): 0.17% w/w
- Solubility (% w/w) ([1]; in Isopropyl palmitate): 1.37% w/w
- Solubility (% w/w) ([1]; in Mineral oil): 1.00% w/w
- Solubility (% w/w) ([1]; in Octyl palmitate): 1.00% w/w
- Solubility (% w/w) ([1]; in Sesame oil): 1.40% w/w
- Solubility (% w/w) ([1]; in Squalane): 0.10% w/w
- maximum solubility in water [2]: 20 µg/mL
